Values quoted from earlier work as cited in patent US6387915B2, “Isoxazole-sulfonamide endothelin antagonists” (Pfizer Inc., priority 2000, dated 2002).

How the values were obtained:
[1] = system: neointimal formation; conditions: S. Douglas et al., Circ. Res, 75, 1994
[2] = in man; Hypertension (1999) 33, 581-585
[3] = hypertensive patients; H. Krum et al., New Eng. J. Med. (1998) 338, 784-790

In the case of `CCCOc1ccc2c(c1)[C@@H](c1ccc(OC)cc1OCC(=O)O)[C@H](C(=O)O)[C@H]2c1ccc2c(c1)OCO2` [SB-209670], the “reduction in neointimal formation relative to control animals” value [1] is listed as 50%.
For `CCCC[C@@H](NC(=O)[C@@H](Cc1cn(C(=O)OC)c2ccccc12)NC(=O)[C@H](CC(C)(C)C)NC(=O)N1[C@H](C)CCC[C@@H]1C)C(=O)O` [BQ-788], the “effect on peripheral resistance” value [2] is given as “increase peripheral resistance”.
In the case of `COc1ccccc1Oc1c(NS(=O)(=O)c2ccc(C(C)(C)C)cc2)nc(-c2ncccn2)nc1OCCO` [Bosentan], the “effect on blood pressure” value [3] is listed as “decreased blood pressure”.
